Laboratory results: PubChem BioAssay (NCI)
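Cells were grown in 96-well plates and exposed to each compound for 48 hours at five concentrations; endpoints were interpolated linearly between bracketing concentrations, or set to the highest concentration if not reached. GI50 is the concentration that inhibits growth by half. TGI marks complete inhibition of growth.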

Experiments:
Test in all cases: NCI anticancer screen, dose series, 48 h
[1] = test system: OVCAR-5 ovarian
[2] = test system: OVCAR-8 ovarian
[3] = test system: UO-31 renal
[4] = test system: UACC-257 melanoma
[5] = test system: CCRF-CEM leukemia
[6] = test system: UACC-62 melanoma
[7] = test system: TK-10 renal
[8] = test system: T-47D breast
[9] = test system: SF-268 CNS
[10] = test system: BT-549 breast
[11] = test system: NCI-H226 lung
[12] = test system: CAKI-1 renal
[13] = test system: ACHN renal
[14] = test system: MCF7 breast
[15] = test system: MDA-MB-231 breast
[16] = test system: HL-60(TB) leukemia
[17] = test system: SR leukemia
[18] = test system: DU-145 prostate
[19] = test system: NCI-H460 lung
[20] = test system: SF-295 CNS
[21] = test system: OVCAR-3 ovarian
[22] = test system: 786-0 renal
[23] = test system: SF-539 CNS
[24] = test system: RPMI-8226 leukemia
[25] = test system: A498 renal
[26] = test system: M14 melanoma
[27] = test system: U251 CNS
[28] = test system: HT29 colon
[29] = test system: LOX IMVI melanoma

## CCCCCCCC(=O)SCC/C=C/[C@@H]1CC(=O)NCc2nc(cs2)C2=N[C@@](C)(CS2)C(=O)N[C@@H](C(C)C)C(=O)N1
[1]
  TGI: > 100000 nM
[2]
  GI50: 23.4 nM
  TGI: 16700 nM
[3]
  GI50: 741 nM
  TGI: 21200 nM
[4]
  GI50: < 10 nM
  TGI: 39.2 nM
[5]
  GI50: 26.5 nM
  TGI: > 100000 nM
[6]
  GI50: < 10 nM
  TGI: 165 nM
[7]
  GI50: 17.5 nM
  TGI: 316 nM
[8]
  GI50: < 12.4 nM
  TGI: 67.7 nM
[9]
  GI50: 76.9 nM
  TGI: > 50500 nM
[10]
  GI50: 60.4 nM
  TGI: > 66800 nM
[11]
  GI50: 906 nM
  TGI: 22200 nM
[12]
  GI50: 2750 nM
  TGI: 17600 nM
[13]
  GI50: 508 nM
  TGI: 12000 nM
[14]
  GI50: 19.8 nM
  TGI: > 100000 nM
[15]
  GI50: 28.6 nM
  TGI: 31500 nM
[16]
  GI50: 13 nM
  TGI: > 100000 nM
[17]
  GI50: < 11.2 nM
  TGI: > 100000 nM
[18]
  GI50: < 10 nM
  TGI: > 100000 nM
[19]
  GI50: 33.5 nM
  TGI: > 100000 nM
[20]
  GI50: 39.2 nM
  TGI: 402 nM
[21]
  GI50: 15 nM
  TGI: 806 nM
[22]
  GI50: 139 nM
  TGI: 19700 nM
[23]
  GI50: 38.1 nM
  TGI: > 57800 nM
[24]
  GI50: 28.3 nM
  TGI: > 100000 nM
[25]
  GI50: 24.4 nM
  TGI: 333 nM
[26]
  GI50: 32.3 nM
  TGI: > 100000 nM
[27]
  GI50: 31.8 nM
  TGI: 364 nM
[28]
  GI50: < 10 nM
  TGI: 49.9 nM
[29]
  GI50: 19.8 nM
  TGI: 46.8 nM
